Results taken from patent US11866430B2, “Naphthyridinone compounds useful as T cell activators” (priority 2018, dated 2024).
Read-outs that look alike come from different tables or passages of the source.

Columns and labels:
[1] = system: pre-activated CD4 T cells and Raji cells; assay: Raji CD4 T Cell IL2 Assay; type: cell-based
[2] = target: human DGKα (Homo sapiens (Human), UniProt P23743); assay: biochemical; conditions: detergent/lipid micelle substrate; read-out: DGKα IC50
Method in brief: (§1)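 Full-length human DGKα or DGKζ (C-terminal His tag, Sf9-expressed; 20 nM 4× stock) was preincubated 10 min at room temperature with PS/DAG octyl glucoside micelles in MOPS pH 7.5 buffer with MgCl2, CaCl2 and DTT. It was then started with ATP (300 uM addition) and run for 1 hr, with ADP-Glo luminescence read-out.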

[3] = target: human DGKζ (Homo sapiens (Human), UniProt Q13574); assay: DGKζ assay (detergent/lipid micelle substrate); type: biochemical
Method in brief: as §1

[4] = detergent/lipid micelle substrate, read-out: DGKζ IC50

Chain of human DGKα (P23743 other isoform, or with tags, fused parts or gaps): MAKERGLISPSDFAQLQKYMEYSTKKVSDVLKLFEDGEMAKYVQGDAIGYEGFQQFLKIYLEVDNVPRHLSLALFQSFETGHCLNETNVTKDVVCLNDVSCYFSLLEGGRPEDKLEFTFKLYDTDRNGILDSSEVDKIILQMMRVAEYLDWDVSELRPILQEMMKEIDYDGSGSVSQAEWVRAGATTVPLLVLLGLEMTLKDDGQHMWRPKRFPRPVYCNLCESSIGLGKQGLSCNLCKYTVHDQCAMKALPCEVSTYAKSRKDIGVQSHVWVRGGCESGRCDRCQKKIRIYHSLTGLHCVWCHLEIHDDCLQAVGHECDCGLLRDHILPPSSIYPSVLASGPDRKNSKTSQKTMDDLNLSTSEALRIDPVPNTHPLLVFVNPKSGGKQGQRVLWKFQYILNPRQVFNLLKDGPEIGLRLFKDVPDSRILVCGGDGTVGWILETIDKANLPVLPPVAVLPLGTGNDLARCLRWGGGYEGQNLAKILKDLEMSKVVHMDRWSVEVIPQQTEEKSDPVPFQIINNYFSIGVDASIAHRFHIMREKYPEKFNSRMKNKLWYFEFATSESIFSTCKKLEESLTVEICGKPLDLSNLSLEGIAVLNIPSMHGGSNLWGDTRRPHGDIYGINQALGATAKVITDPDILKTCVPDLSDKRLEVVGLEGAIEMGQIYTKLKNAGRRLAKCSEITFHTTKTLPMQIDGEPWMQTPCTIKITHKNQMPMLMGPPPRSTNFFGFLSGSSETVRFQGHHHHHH
Chain of human DGKζ (Q13574 other isoform, or with tags, fused parts or gaps): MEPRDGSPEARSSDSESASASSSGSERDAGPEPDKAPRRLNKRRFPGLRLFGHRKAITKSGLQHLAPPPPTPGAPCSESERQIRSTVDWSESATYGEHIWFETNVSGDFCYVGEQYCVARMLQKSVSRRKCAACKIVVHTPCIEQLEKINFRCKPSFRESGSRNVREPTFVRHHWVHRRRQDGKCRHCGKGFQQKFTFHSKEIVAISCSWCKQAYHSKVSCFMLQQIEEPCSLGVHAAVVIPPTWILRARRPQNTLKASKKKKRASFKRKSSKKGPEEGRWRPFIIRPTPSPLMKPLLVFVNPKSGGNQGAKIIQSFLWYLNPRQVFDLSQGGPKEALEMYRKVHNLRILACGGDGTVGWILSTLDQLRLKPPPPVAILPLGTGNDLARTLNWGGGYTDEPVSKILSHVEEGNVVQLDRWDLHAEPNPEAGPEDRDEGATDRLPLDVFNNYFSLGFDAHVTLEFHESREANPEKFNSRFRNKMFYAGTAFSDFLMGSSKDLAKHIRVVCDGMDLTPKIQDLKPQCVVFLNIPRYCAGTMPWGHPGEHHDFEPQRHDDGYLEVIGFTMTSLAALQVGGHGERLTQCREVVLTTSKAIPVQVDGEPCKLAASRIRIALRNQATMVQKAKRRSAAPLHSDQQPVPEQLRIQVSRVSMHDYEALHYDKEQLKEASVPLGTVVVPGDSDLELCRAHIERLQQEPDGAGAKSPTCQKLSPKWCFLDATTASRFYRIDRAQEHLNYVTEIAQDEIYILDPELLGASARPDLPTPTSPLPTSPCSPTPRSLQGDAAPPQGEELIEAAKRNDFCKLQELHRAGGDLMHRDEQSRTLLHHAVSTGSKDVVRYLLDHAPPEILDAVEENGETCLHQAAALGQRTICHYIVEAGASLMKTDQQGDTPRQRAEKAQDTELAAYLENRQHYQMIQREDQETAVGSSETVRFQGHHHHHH

| Structure (SMILES) | IC50 ([1]; Homo sapiens, Raji) [nM] | IC50 [2] [nM] | IC50 [3, 4] [µM] | IC50 [1] [nM] | IC50 ([3]; DGKζ IC50, detergent/lipid micelle substrate) [µM] |
| --- | --- | --- | --- | --- | --- |
| Cn1c(=O)c(C#N)c(N2CCN(Cc3cccc4cn[nH]c34)CC2)c2nc(Cl)ccc21 [Example 322, 6-chloro-4-{4-[(1H-indazol-7-yl)methyl]piperazin-1-yl}-1-methyl-2-oxo-1,2-dihydro-1,5-naphthyridine-3-carbonitrile] | 320 | 2800 | > 240 | – | – |
| COc1cccc(C)c1C(c1ccc(F)cc1)N1CCN(c2c([N+](=O)[O-])c(=O)n(C)c3ccc(Br)nc23)CC1 (single isomer, unassigned) [Example 60, 6-bromo-4-(4-((4-fluorophenyl)(2-methoxy-6-methylphenyl)methyl)piperazin-1-yl)-1-methyl-3-nitro-1,5-naphthyridin-2(1H)-one] | – | 32000 | > 240 | 1600 | – |
| Cn1c(=O)c(C#N)c(N2CCN(Cc3cc(Cl)cc(Cl)c3O)CC2)c2nc(Br)ccc21 [Example 366, 6-bromo-4-{4-[(3,5-dichloro-2-hydroxyphenyl)methyl]piperazin-1-yl}-1-methyl-2-oxo-1,2-dihydro-1,5-naphthyridine-3-carbonitrile] | > 100000 | 1300 | 160 | – | – |
| Cn1c(=O)c(C#N)c(N2CCN(Cc3ccc(OC(F)(F)F)cc3O)CC2)c2nc(C#N)ccc21 [Example 265, 8-(4-{[2-hydroxy-4-(trifluoromethoxy)phenyl]methyl}piperazin-1-yl)-5-methyl-6-oxo-5,6-dihydro-1,5-naphthyridine-2,7-dicarbonitrile] | 39 | 34 | 36 | – | – |
| Cc1ccc2c(n1)c(N1CCN(C(c3ccc(F)cc3)c3ccc(F)cc3)CC1)c(C(F)(F)F)c(=O)n2C [Example 232, 4-(4-(bis(4-fluorophenyl)methyl)piperazin-1-yl)-1,6-dimethyl-3-(trifluoromethyl)-1,5-naphthyridin-2(1H)-one] | 1100 | 150000 | > 240 | – | – |
| C#CCn1c(=O)c([N+](=O)[O-])c(N2CCN(C(c3ccc(F)cc3)C3CC3)CC2)c2nc(C#N)ccc21 (single isomer, unassigned) [Example 144, 8-(4-(cyclopropyl(4-fluorophenyl)methyl)piperazin-1-yl)-7-nitro-6-oxo-5-(prop-2-yn-1-yl)-5,6-dihydro-1,5-naphthyridine-2-carbonitrile] | 20 | 530 | 7.9 | – | – |
| C#CCOc1ccccc1C(c1ccc(F)cc1)N1CCN(c2c(C#N)c(=O)n(C)c3ccc(Cl)nc23)CC1 (stereo not drawn) [Example 39, 6-chloro-4-{4-[(4-fluorophenyl)[2-(prop-2-yn-1-yloxy)phenyl]methyl]piperazin-1-lv}-1-methyl-2-oxo-1,2-dihydro-1,5-naphthyridine-3-carbonitrile] | 640 | 50000 | > 240 | – | – |
| COc1cccc(CN2CCN(c3c(C#N)c(=O)n(C)c4ccc(Cl)nc34)CC2)c1 [Example 327, 6-chloro-4-{4-[(3-methoxyphenyl)methyl]piperazin-1-yl}-1-methyl-2-oxo-1,2-dihydro-1,5-naphthyridine-3-carbonitrile] | 430 | 660 | 140 | – | – |
| Cn1c(=O)c(C#N)c(N2CCN(Cc3cccc(F)c3F)CC2)c2nc(Cl)ccc21 [Example 330, 6-chloro-4-{4-[(2,3-difluorophenyl)methyl]piperazin-1-yl}-1-methyl-2-oxo-1,2-dihydro-1,5-naphthyridine-3-carbonitrile] | 500 | 3700 | > 240 | – | – |
| Cn1c(=O)c(C#N)c(N2CCN(Cc3c(O)cccc3Br)CC2)c2nc(Br)ccc21 [Example 271, 6-bromo-4-{4-[(2-bromo-6-hydroxyphenyl)methyl]piperazin-1-yl}-1-methyl-2-oxo-1,2-dihydro-1,5-naphthyridine-3-carbonitrile] | 61 | 1100 | 110 | – | – |
| Cn1c(=O)c(Br)c(N2CCN(C(c3ccc(F)cc3)c3ccc(F)cc3)CC2)c2ncccc21 [Example 230, 4-(4-(bis(4-fluorophenyl)methyl)piperazin-1-yl)-3-bromo-1-methyl-1,5-naphthyridin-2(1H)-one] | 3600 | 8800 | > 240 | – | – |
| COCCn1c(=O)c(C#N)c(N2CCN(C(c3ccc(F)cc3)c3ccc(F)cc3OC)CC2)c2nc(Br)ccc21 (single isomer, unassigned) [Example 115, 6-bromo-4-(4-((4-fluoro-2-methoxyphenyl)(4-fluorophenyl)methyl)piperazin-1-yl)-1-(2-methoxyethyl)-2-oxo-1,2-dihydro-1,5-naphthyridine-3-carbonitrile] | – | 220000 | > 240 | 3800 | – |
| Cc1ccc2c(n1)c(N1CCN(Cc3cc(OC(F)(F)F)ccc3O)CC1)c(C#N)c(=O)n2C [Example 262, 4-(4-{[2-hydroxy-5-(trifluoromethoxy)phenyl]methyl}piperazin-1-yl)-1,6-dimethyl-2-oxo-1,2-dihydro-1,5-naphthyridine-3-carbonitrile] | 28 | 520 | > 240 | – | – |
| Cn1c(=O)c(C#N)c(N2CCN(Cc3ccc(Cl)c(F)c3)CC2)c2nc(Cl)ccc21 [Example 326, 6-chloro-4-{4-[(4-chloro-3-fluorophenyl)methyl]piperazin-1-yl}-1-methyl-2-oxo-1,2-dihydro-1,5-naphthyridine-3-carbonitrile] | 380 | 1900 | > 240 | – | – |
| COc1cccc(CN2CCN(c3c(C#N)c(=O)n(C)c4ccc(C)nc34)CC2)c1O [Example 352, 4-{4-[(2-hydroxy-3-methoxyphenyl)methyl]piperazin-1-yl}-1,6-dimethyl-2-oxo-1,2-dihydro-1,5-naphthyridine-3-carbonitrile] | 1600 | 700 | > 81 | – | – |
| Cn1c(=O)c([N+](=O)[O-])c(N2CCN(C(c3ccc(F)cc3)c3cccc(F)c3O)CC2)c2nc(Br)ccc21 (single isomer, unassigned) [Example 75, 6-bromo-4-(4-((3-fluoro-2-hydroxyphenyl)(4-fluorophenyl)methyl)piperazin-1-yl)-1-methyl-3-nitro-1,5-naphthyridin-2(1H)-one] | – | 2600 | – | 140 | 130 |
| Cn1c(=O)c(C#N)c(N2CCN(Cc3cc(Br)ccc3O)CC2)c2nc(Br)ccc21 [Example 282, 6-bromo-4-{4-[(5-bromo-2-hydroxyphenyl)methyl]piperazin-1-yl}-1-methyl-2-oxo-1,2-dihydro-1,5-naphthyridine-3-carbonitrile] | 94 | 220 | > 240 | – | – |
| Cn1c(=O)c(C#N)c(N2CCN(Cc3cc(F)cc(F)c3O)CC2)c2nc(Cl)ccc21 [Example 298, 6-chloro-4-{4-[(3,5-difluoro-2-hydroxyphenyl)methyl]piperazin-1-yl}-1-methyl-2-oxo-1,2-dihydro-1,5-naphthyridine-3-carbonitrile] | 160 | 830 | 27 | – | – |
| Cc1ccc2c(n1)c(N1CCN(C(c3ccc(F)cc3)c3ccc(F)cc3)CC1)cc(=O)n2C [Example 427, 4-{4-[bis(4-fluorophenyl)methyl]piperazin-1-yl}-1,6-dimethyl-1,2-dihydro-1,5-naphthyridin-2-one] | 2400 | 150000 | > 240 | – | – |
| Cn1c(=O)c(C#N)c(N2CCN(Cc3c(O)cccc3F)CC2)c2nc(Br)ccc21 [Example 294, 6-bromo-4-{4-[(2-fluoro-6-hydroxyphenyl)methyl]piperazin-1-yl}-1-methyl-2-oxo-1,2-dihydro-1,5-naphthyridine-3-carbonitrile] | 140 | 110 | > 240 | – | – |
| Cn1c(=O)c(C#N)c(N2CCN(Cc3ccc(O)c(C(F)(F)F)c3)CC2)c2nc(Cl)ccc21 [Example 355, 6-chloro-4-(4-{[4-hydroxy-3-(trifluoromethyl)phenyl]methyl}piperazin-1-yl)-1-methyl-2-oxo-1,2-dihydro-1,5-naphthyridine-3-carbonitrile] | 2800 | 7100 | > 240 | – | – |
| COc1ccccc1C(c1ccc(F)cc1)N1CCN(c2c([N+](=O)[O-])c(=O)n(C)c3ccc(C#N)nc23)CC1 (racemic) [Example 18, 8-{4-[(4-fluorophenyl)(2-methoxyphenyl)methyl]piperazin-1-yl}-5-methyl-7-nitro-6-oxo-5,6-dihydro-1,5-naphthyridine-2-carbonitrile] | 23 | 960 | 2.5 | – | – |
| CCc1ccc2c(n1)c(N1CCN(C(c3ccccc3)c3ccccc3)CC1)c(C#N)c(=O)n2C [Example 202, 4-(4-benzhydrylpiperazin-1-yl)-6-ethyl-1-methy-2-oxo-1,2-dihydro-1,5-naphthyridine-3-carbonitrile] | 400 | 31000 | 12 | – | – |
| Cn1c(=O)c(C#N)c(N2CCN(Cc3cc(OC(F)(F)F)ccc3O)CC2)c2nc(Cl)ccc21 [Example 369, 6-chloro-4-(4-{[2-hydroxy-5-(trifluoromethoxy)phenyl]methyl}piperazin-1-yl)-1-methyl-2-oxo-1,2-dihydro-1,5-naphthyridine-3-carbonitrile] | > 100000 | 160 | > 240 | – | – |
| Cn1c(=O)c([N+](=O)[O-])c(N2CCN(C(c3ccccc3)c3ccccc3O)CC2)c2nc(Br)ccc21 (single isomer, unassigned) [Example 79, 6-bromo-4-(4-((2-hydroxyphenyl)(phenyl)methyl)piperazin-1-yl)-1-methyl-3-nitro-1,5-naphthyridin-2(1H)-one] | – | 81000 | > 81 | 67 | – |
